Test [1] concerns the target T1, Dipeptidase 1 (Sus scrofa) (UniProt P22412).
T1 sequence (whole entry): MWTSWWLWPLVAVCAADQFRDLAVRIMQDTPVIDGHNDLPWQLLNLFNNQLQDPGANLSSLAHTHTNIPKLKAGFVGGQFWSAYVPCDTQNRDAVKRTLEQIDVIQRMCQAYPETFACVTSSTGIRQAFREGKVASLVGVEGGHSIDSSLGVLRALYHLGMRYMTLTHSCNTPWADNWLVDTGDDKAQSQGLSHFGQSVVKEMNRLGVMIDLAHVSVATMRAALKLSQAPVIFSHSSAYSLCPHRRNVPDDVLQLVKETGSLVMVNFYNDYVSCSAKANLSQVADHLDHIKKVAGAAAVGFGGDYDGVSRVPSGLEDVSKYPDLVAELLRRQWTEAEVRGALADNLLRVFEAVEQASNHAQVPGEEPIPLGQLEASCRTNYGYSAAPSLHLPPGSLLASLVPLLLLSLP
In words: Dehydropeptidase-1 susceptibility.

The test system of another test is Enterococcus. Kind of test: Compound was evaluated for the antibacterial activity against Enterococcus as fold improvement in activity with respect to imipenem. The format is functional.
Another test has as its system Enterobacter. In words: Compound was evaluated for the antibacterial activity against Enterobacter as fold improvement in activity with respect to imipenem. The format is functional.
For a further test, the system named is Escherichia coli. In words: Compound was evaluated for the antibacterial activity against Escherichia coli as fold improvement in activity with respect to imipenem. Format: functional.
Another test concerns Klebsiella. In words: Compound was evaluated for the antibacterial activity against Klebsiella.8 as fold improvement in activity with respect to imipenem. The format is functional.
A further test has as its system Pseudomonas aeruginosa. Kind of test: Compound was evaluated for the antibacterial activity against Pseudomonas aeruginosa as fold improvement in activity with respect to imipenem. Format: functional.
Test [2] deals with Staphylococcus aureus. Kind of test: Compound was evaluated for the antibacterial activity against methicillin-resistant Staphylococcus aureus (MRSA)as fold improvement in activity with respect to imipenem. Format: functional.
The nature of test [3]: Compound was evaluated for the antibacterial activity against methicillin-resistant coagulase-negative staphylococci (MRCNS)as fold improvement in activity with respect to imipenem. Format: functional, Staphylococcus […].
Test [4] relates to Staphylococcus aureus. In words: Compound was evaluated for the antibacterial activity against methicillin-sensitive Staphylococcus aureus (MSSA)as fold improvement in activity with respect to imipenem. The format is functional.
The next test relates to Serratia. In words: Compound was evaluated for the antibacterial activity against Serratia as fold improvement in activity with respect to imipenem. Format: functional.
The subject of the next test is Proteus. Kind of test: Compound was evaluated for the antibacterial activity against Proteus as fold improvement in activity with respect to imipenem. Format: functional, Proteus sp.
In test [5] the test system is Staphylococcus aureus. Kind of test: Compound was evaluated for the anti-MRSA activity as MIC50. Format: functional.
For test [6], the system named is Staphylococcus aureus. Kind of test: Compound was evaluated for the anti-MRSA activity as MIC90. Format: functional.
The subject of test [7] is coagulase-negative Staphylococcus. Kind of test: Compound was evaluated for the anti-MRCNS activity as MIC50.

The text below walks through data of ChEMBL document CHEMBL1132139, “2-Naphthylcarbapenems: broad spectrum antibiotics with enhanced potency against MRSA” (1999).

Values after ≈ are worked out from the molar mass of the structure shown.

As for `C[C@@H](O)[C@H]1C(=O)N2C(C(=O)[O-])=C(c3ccc4ccc(C[n+]5ccc(N)cc5)cc4c3)C[C@H]12`, the Activity stood at 0.07 in test [1]; 4.9 in the test on Enterococcus; 0.17 in the test on Enterobacter; 0.33 in the test with Escherichia coli; 0.25 in the test with Klebsiella; 0.01 with Pseudomonas aeruginosa. The Activity in the test with Staphylococcus aureus [2] came out at 16; in test [3], 55; in the test with Staphylococcus aureus [4], 0.53; with Serratia, 0.97; in the test with Proteus, 3.2.
As for `C[C@H](O)[C@H]1C(=O)N2C(C(=O)[O-])=C(c3cc(C[n+]4ccc(N)cc4)c4ccccc4c3)C[C@H]12`, the Activity in [1] is 0.01; with Enterococcus it was 2.2; in the test on Enterobacter, 0.02; in the test with Escherichia coli it was 0.06; with Klebsiella, 0.02; in the test on Pseudomonas aeruginosa, 0.01. Moreover, the Activity is reported as 11 with Staphylococcus aureus [2]; 24 in test [3]; 0.42 in the test with Staphylococcus aureus [4]; 0.02 in the test with Serratia; 0.19 in the test on Proteus.
For the molecule `C[C@@H](O)[C@H]1C(=O)N2C(C(=O)[O-])=C(c3ccc(C[n+]4ccccc4N)cc3)C[C@H]12`, the Activity in [1] worked out at 0.11; in the test with Enterococcus, 12.9; in the test with Enterobacter it was 3; in the test on Escherichia coli it was 1.7; in the test on Klebsiella it was 1.1; in the test on Pseudomonas aeruginosa it was 0.02. Besides, the Activity in the test on Staphylococcus aureus [2] worked out at 2; in test [3], 1.6; in the test on Staphylococcus aureus [4] it was 0.5; in the test on Serratia, 4.4; with Proteus, 4.2.
As to `C[C@@H](O)[C@H]1C(=O)N2C(C(=O)[O-])=C(c3ccc4cc(C[n+]5ccccc5N)ccc4c3)C[C@H]12`, the Activity in test [1] was found to be 0.2; in the test on Enterococcus it was 4.4; in the test with Enterobacter, 0.85; in the test on Escherichia coli it was 1.4; in the test with Klebsiella, 0.38; with Pseudomonas aeruginosa, 0.02. In addition, the Activity in the test on Staphylococcus aureus [2] was determined as 28; in test [3], 323; in the test on Staphylococcus aureus [4], 0.39; with Serratia, 2; with Proteus it was 5. For the same molecule, the MIC50 – broadly, an inhibitory concentration at the 50% level, which refers to growth in some studies and to a panel of isolates in others – was 2 µg/mL (≈ 4.66 µM) in the test with Staphylococcus aureus [5] and 8 µg/mL (≈ 18.6 µM) in test [7]. Further, the MIC90 – broadly, the lowest concentration that inhibits either 90% of growth or 90% of the strains tested, depending on the study – with Staphylococcus aureus [6] was found to be 4 µg/mL (≈ 9.31 µM).
In the case of `C[C@@H](O)[C@H]1C(=O)N2C(C(=O)[O-])=C(c3ccc4c(C[n+]5ccc(N)cc5)cccc4c3)C[C@H]12`, the Activity in test [1] came out at 0.03; in the test on Enterococcus, 2.7; in the test with Enterobacter, 0.18; in the test on Escherichia coli, 0.4; in the test with Klebsiella, 0.21; with Pseudomonas aeruginosa, 0.02. Besides, the Activity in the test with Staphylococcus aureus [2] was 12; in [3], 77; with Staphylococcus aureus [4], 0.42; in the test on Serratia it was 0.69; with Proteus, 15.
Take `C[C@H](O)[C@H]1C(=O)N2C(C(=O)[O-])=C(c3cc(C[n+]4ccccc4N)c4ccccc4c3)C[C@H]12`: the Activity in test [1] was 0.01; with Enterococcus, 2.2; in the test with Enterobacter, 0.01; with Escherichia coli it was 0.04; with Klebsiella, 0.02; in the test on Pseudomonas aeruginosa, 0.01. The Activity with Staphylococcus aureus [2] was determined as 1.4; in [3], 1.9; with Staphylococcus aureus [4] it was 0.13; in the test on Serratia, 0.02; in the test on Proteus, 0.1.
Consider `C[C@H](O)[C@H]1C(=O)N2C(C(=O)[O-])=C(c3cccc(-c4ccc(C[n+]5ccccc5N)cc4)c3)C[C@H]12`, for which the Activity in [1] stood at 0.04; in the test on Enterococcus it was 6.2; in the test on Enterobacter, 0.04; with Escherichia coli, 0.11; with Klebsiella, 0.04; in the test on Pseudomonas aeruginosa it was 0.01. The Activity worked out at 154 in the test on Staphylococcus aureus [2]; 232 in test [3]; 0.43 in the test with Staphylococcus aureus [4]; 0.11 in the test with Serratia; 0.38 in the test with Proteus. The values for the MIC50 (in the test with Staphylococcus aureus [5]; in test [7]) were 1 µg/mL (≈ 2.2 µM) and 2 µg/mL (≈ 4.39 µM), respectively. For the same molecule, in the test with Staphylococcus aureus [6], the MIC90 was found to be 2 µg/mL (≈ 4.39 µM).
`C[C@@H](O)[C@H]1C(=O)N2C(C(=O)[O-])=C(c3ccc4cccc(C[n+]5ccccc5N)c4c3)C[C@H]12`: the Activity turned out to be 0 in [1]; 2.1 in the test on Enterococcus; 0.01 in the test with Enterobacter; 0.04 with Escherichia coli; 0.03 with Klebsiella; 0.02 with Pseudomonas aeruginosa. In addition, the Activity in the test on Staphylococcus aureus [2] is given as 4.9; in [3] it was 8; with Staphylococcus aureus [4], 0.1; in the test on Serratia, 0.05; with Proteus, 0.22.
`C[C@@H](O)[C@H]1C(=O)N2C(C(=O)[O-])=C(c3ccc4cc(C[n+]5cccc(N)c5)ccc4c3)C[C@H]12`: the Activity in test [1] was 0.15; in the test with Enterococcus, 2.3; with Enterobacter, 0.64; with Escherichia coli, 1.3; in the test with Klebsiella it was 0.43; with Pseudomonas aeruginosa, 0.02. The Activity turned out to be 13 in the test with Staphylococcus aureus [2]; 44 in test [3]; 0.53 in the test with Staphylococcus aureus [4]; 3 with Serratia; 6.5 in the test with Proteus.
With `CC(O)C1C(=O)N2C(C(=O)O)=C(c3ccc4ccccc4c3)CC12` (stereo not given), the Activity is 0.09 in test [1]; 2.6 in the test with Enterococcus; 0.1 in the test with Enterobacter; 0.31 in the test on Escherichia coli; 0.08 in the test on Klebsiella; 0.01 in the test with Pseudomonas aeruginosa. For the same molecule, the Activity stood at 3.3 in the test on Staphylococcus aureus [2]; 2.7 in test [3]; 0.5 in the test with Staphylococcus aureus [4]; 0.09 in the test with Serratia; 2.8 in the test with Proteus.
With `C[C@@H](O)[C@H]1C(=O)N2C(C(=O)[O-])=C(c3cc(C[n+]4cccc(N)c4)c4ccccc4c3)C[C@H]12`, the Activity is 0.01 in test [1]; 3.2 in the test on Enterococcus; 0.02 in the test with Enterobacter; 0.09 in the test on Escherichia coli; 0.01 in the test on Klebsiella; 0.01 in the test on Pseudomonas aeruginosa. Further, the Activity in the test with Staphylococcus aureus [2] is 6.9; in test [3] it was 12; with Staphylococcus aureus [4], 0.39; with Serratia it was 0.03; in the test on Proteus, 0.13.
Consider `CN[C@H](CC(C)C)C(=O)N[C@H]1C(=O)N[C@@H](CC(N)=O)C(=O)N[C@H]2C(=O)N[C@H]3C(=O)N[C@H](C(=O)N[C@H](C(=O)O)c4cc(O)cc(O)c4-c4cc3ccc4O)[C@H](O)c3ccc(c(Cl)c3)Oc3cc2cc(c3O[C@@H]2O[C@H](CO)[C@@H](O)[C@H](O)[C@H]2O[C@H]2C[C@](C)(N)[C@H](O)[C@H](C)O2)Oc2ccc(cc2Cl)[C@H]1O` [VANCOMYCIN], for which the MIC50 against Staphylococcus aureus [5] worked out at 2 µg/mL (≈ 1.38 µM); in test [7], 4 µg/mL (≈ 2.76 µM). The MIC90 with Staphylococcus aureus [6] came to 2 µg/mL (≈ 1.38 µM).
